Measured values taken from the NIST ThermoML archive (doi:10.1021/je0501843).
“And” between values parts separate entries of the source, which are not always exact repeats. Identical values can stand only once.

Assay: molar heat capacity at constant volume
Conditions: Fluid (supercritical or subcritical phases), Vacuum adiabatic calorimetry

FC(F)C(F)(F)F [pentafluoroethane]
Conditions	molar heat capacity at constant volume
350 K, Mass density=585.7 kg/m3	121.87 J/K/mol and 115.26 J/K/mol
350 K, Mass density=688.6 kg/m3	121.82 J/K/mol
350 K, Mass density=774 kg/m3	115.87 J/K/mol
350 K, Mass density=882.7 kg/m3	111.2 J/K/mol
350 K, Mass density=975 kg/m3	106.81 J/K/mol and 108.22 J/K/mol
350 K, Mass density=1076.5 kg/m3	105.51 J/K/mol and 105.75 J/K/mol
351 K, Mass density=403.4 kg/m3	114.03 J/K/mol
351 K, Mass density=503 kg/m3	115.42 J/K/mol
351 K, Mass density=585.7 kg/m3	123.23 J/K/mol and 114 J/K/mol
351 K, Mass density=688.6 kg/m3	119.91 J/K/mol
351 K, Mass density=773.9 kg/m3	114.06 J/K/mol
351 K, Mass density=882.7 kg/m3	110.25 J/K/mol
351 K, Mass density=974.9 kg/m3	106.01 J/K/mol and 107.36 J/K/mol
351 K, Mass density=1076.4 kg/m3	105.26 J/K/mol and 105.57 J/K/mol
352 K, Mass density=403.5 kg/m3	110.23 J/K/mol
352 K, Mass density=503 kg/m3	114.08 J/K/mol
352 K, Mass density=585.7 kg/m3	123.57 J/K/mol and 113.02 J/K/mol
352 K, Mass density=688.6 kg/m3	117.02 J/K/mol
352 K, Mass density=773.9 kg/m3	113.16 J/K/mol
352 K, Mass density=882.6 kg/m3	108.96 J/K/mol
352 K, Mass density=974.8 kg/m3	106.96 J/K/mol and 107.86 J/K/mol
352 K, Mass density=1076.3 kg/m3	105.75 J/K/mol and 105.23 J/K/mol
353 K, Mass density=403.5 kg/m3	109.29 J/K/mol
353 K, Mass density=503 kg/m3	114.32 J/K/mol
353 K, Mass density=585.7 kg/m3	120.99 J/K/mol and 113.07 J/K/mol
353 K, Mass density=688.5 kg/m3	116.8 J/K/mol
353 K, Mass density=773.8 kg/m3	113.56 J/K/mol
353 K, Mass density=882.5 kg/m3	110.9 J/K/mol
353 K, Mass density=974.7 kg/m3	107.31 J/K/mol and 108.33 J/K/mol
353 K, Mass density=1076.2 kg/m3	106.21 J/K/mol and 105.67 J/K/mol
354 K, Mass density=403.6 kg/m3	113.22 J/K/mol
354 K, Mass density=503 kg/m3	115.36 J/K/mol
354 K, Mass density=585.7 kg/m3	119.21 J/K/mol and 111.24 J/K/mol
354 K, Mass density=688.5 kg/m3	117.18 J/K/mol
354 K, Mass density=773.8 kg/m3	113.7 J/K/mol
354 K, Mass density=882.5 kg/m3	112.32 J/K/mol
354 K, Mass density=974.6 kg/m3	107.07 J/K/mol and 107.84 J/K/mol
354 K, Mass density=1076.1 kg/m3	105.5 J/K/mol and 106.64 J/K/mol
355 K, Mass density=403.6 kg/m3	113.06 J/K/mol
355 K, Mass density=503 kg/m3	114.26 J/K/mol
355 K, Mass density=585.7 kg/m3	121.17 J/K/mol and 110.25 J/K/mol
355 K, Mass density=688.5 kg/m3	116.52 J/K/mol
355 K, Mass density=773.7 kg/m3	113.14 J/K/mol
355 K, Mass density=882.4 kg/m3	110.04 J/K/mol
355 K, Mass density=974.6 kg/m3	106.63 J/K/mol and 107.29 J/K/mol
355 K, Mass density=1076 kg/m3	104.47 J/K/mol and 105.31 J/K/mol
356 K, Mass density=403.6 kg/m3	111.13 J/K/mol
356 K, Mass density=503 kg/m3	114 J/K/mol
356 K, Mass density=585.7 kg/m3	121.39 J/K/mol and 110.52 J/K/mol
356 K, Mass density=688.4 kg/m3	115.44 J/K/mol
356 K, Mass density=773.7 kg/m3	112.56 J/K/mol
356 K, Mass density=882.4 kg/m3	109.83 J/K/mol
356 K, Mass density=974.5 kg/m3	106.76 J/K/mol and 106.98 J/K/mol
356 K, Mass density=1075.9 kg/m3	105.59 J/K/mol and 105.04 J/K/mol
357 K, Mass density=403.6 kg/m3	111.14 J/K/mol
357 K, Mass density=503 kg/m3	114.3 J/K/mol
357 K, Mass density=585.6 kg/m3	111.96 J/K/mol
357 K, Mass density=585.7 kg/m3	119.54 J/K/mol
357 K, Mass density=688.4 kg/m3	115.72 J/K/mol
357 K, Mass density=773.7 kg/m3	114.08 J/K/mol
357 K, Mass density=882.3 kg/m3	111.13 J/K/mol
357 K, Mass density=974.4 kg/m3	107.52 J/K/mol and 108.27 J/K/mol
357 K, Mass density=1075.8 kg/m3	106.52 J/K/mol and 106.05 J/K/mol
358 K, Mass density=403.6 kg/m3	111.56 J/K/mol
358 K, Mass density=503 kg/m3	112.47 J/K/mol
358 K, Mass density=585.6 kg/m3	118.73 J/K/mol and 110.52 J/K/mol
358 K, Mass density=688.4 kg/m3	115.42 J/K/mol
358 K, Mass density=773.6 kg/m3	113.91 J/K/mol
358 K, Mass density=882.2 kg/m3	110.62 J/K/mol
358 K, Mass density=974.3 kg/m3	107.37 J/K/mol and 108.93 J/K/mol
358 K, Mass density=1075.7 kg/m3	105.71 J/K/mol and 106.8 J/K/mol
359 K, Mass density=403.6 kg/m3	112.17 J/K/mol
359 K, Mass density=503 kg/m3	112.71 J/K/mol
359 K, Mass density=585.6 kg/m3	120.73 J/K/mol and 110.01 J/K/mol
359 K, Mass density=688.3 kg/m3	114.6 J/K/mol
359 K, Mass density=773.6 kg/m3	112.66 J/K/mol
359 K, Mass density=882.2 kg/m3	109.41 J/K/mol
359 K, Mass density=974.3 kg/m3	106.84 J/K/mol and 107.68 J/K/mol
359 K, Mass density=1075.6 kg/m3	105.11 J/K/mol and 106.04 J/K/mol
360 K, Mass density=403.6 kg/m3	111.06 J/K/mol
360 K, Mass density=503 kg/m3	113.85 J/K/mol
360 K, Mass density=585.6 kg/m3	119.64 J/K/mol and 111.46 J/K/mol
360 K, Mass density=688.3 kg/m3	115.44 J/K/mol
360 K, Mass density=773.5 kg/m3	113.01 J/K/mol
360 K, Mass density=882.1 kg/m3	109.1 J/K/mol
360 K, Mass density=974.2 kg/m3	106.66 J/K/mol and 107.71 J/K/mol
360 K, Mass density=1075.5 kg/m3	106.19 J/K/mol and 105.87 J/K/mol
361 K, Mass density=403.6 kg/m3	110.42 J/K/mol
361 K, Mass density=503 kg/m3	112.26 J/K/mol
361 K, Mass density=585.6 kg/m3	116.41 J/K/mol and 111.57 J/K/mol
361 K, Mass density=688.3 kg/m3	115.6 J/K/mol
361 K, Mass density=773.5 kg/m3	113.86 J/K/mol
361 K, Mass density=882.1 kg/m3	110.89 J/K/mol
361 K, Mass density=974.1 kg/m3	107.11 J/K/mol and 108.37 J/K/mol
361 K, Mass density=1075.4 kg/m3	106.59 J/K/mol
362 K, Mass density=403.6 kg/m3	109.78 J/K/mol
362 K, Mass density=503 kg/m3	111.4 J/K/mol
362 K, Mass density=585.6 kg/m3	117.98 J/K/mol and 110.73 J/K/mol
362 K, Mass density=688.2 kg/m3	115.95 J/K/mol
362 K, Mass density=773.4 kg/m3	112.71 J/K/mol
362 K, Mass density=882 kg/m3	110.8 J/K/mol
362 K, Mass density=974 kg/m3	107.3 J/K/mol and 108.22 J/K/mol
362 K, Mass density=1075.3 kg/m3	106.09 J/K/mol
363 K, Mass density=403.6 kg/m3	109.94 J/K/mol
363 K, Mass density=503 kg/m3	114.16 J/K/mol
363 K, Mass density=585.5 kg/m3	120.74 J/K/mol and 110.36 J/K/mol
363 K, Mass density=688.2 kg/m3	116.44 J/K/mol
363 K, Mass density=773.4 kg/m3	110.53 J/K/mol
363 K, Mass density=881.9 kg/m3	110.61 J/K/mol
363 K, Mass density=974 kg/m3	106.41 J/K/mol and 108.02 J/K/mol
363 K, Mass density=1075.2 kg/m3	106.37 J/K/mol
364 K, Mass density=403.6 kg/m3	111.1 J/K/mol
364 K, Mass density=503 kg/m3	113.42 J/K/mol
364 K, Mass density=585.5 kg/m3	119.4 J/K/mol and 109.88 J/K/mol
364 K, Mass density=688.2 kg/m3	114.69 J/K/mol
364 K, Mass density=773.3 kg/m3	110.71 J/K/mol
364 K, Mass density=881.9 kg/m3	110.79 J/K/mol
364 K, Mass density=973.9 kg/m3	106.7 J/K/mol and 108.1 J/K/mol
364 K, Mass density=1075.1 kg/m3	106.31 J/K/mol
365 K, Mass density=403.6 kg/m3	108.67 J/K/mol
365 K, Mass density=503 kg/m3	111.49 J/K/mol
365 K, Mass density=585.5 kg/m3	117.96 J/K/mol and 110.02 J/K/mol
365 K, Mass density=688.1 kg/m3	115.26 J/K/mol
